EC50 data for two molecules are collected here from ChEMBL document CHEMBL3044842, “Composition and antifungal activity on soil-borne pathogens of the essential oil of Salvia sclarea from Greece” (J Agric Food Chem, 2002).

Assay type in all cases: functional, organism-based
Test [1] concerns Stromatinia cepivora. Nature of the test: Antifungal activity against Sclerotium cepivorum after 4 days.
Test [2] relates to Sclerotinia sclerotiorum. Nature of the test: Antifungal activity against Sclerotinia sclerotiorum after 4 days.
Test [3] deals with Fusarium oxysporum f. sp. dianthi. The test is described as follows: Antifungal activity against Fusarium oxysporum f. sp. dianthi after 4 days.

On to `C=CC(C)(O)CCC=C(C)C` (stereo unspecified) [LINALOOL], for which the EC50 in test [1] stood at 563.94 uL/L; in test [2] it was 146.15 uL/L; in test [3], 661.76 uL/L.
The like results for `C=CC(C)(CCC=C(C)C)OC(C)=O` (stereo unspecified) [LINALYL ACETATE] were, in that order, more than 1500 uL/L, 549.62 uL/L and more than 1500 uL/L.
